# Read-outs that look alike come from different tables or passages of the source.
# Key:
# [1] = for Solubility ratio to FB: FB: drug alone; for Solubility ratio to FB: FB/AT: drug with tartaric acid; for Solubility ratio to FB: FB/AT/βCD / Water solubility, drug concentration F: FB/AT/βCD: drug/tartaric acid/β-CD multicomponent complex; for Water solubility, drug concentration F: FB/βCD: drug/β-cyclodextrin complex; for Water solubility, drug concentration F: FB/DIMEB: drug/DIMEB complex; for Water solubility, drug concentration F: FB/HPβ-CD: drug/HPβ-CD complex; for Water solubility, drug concentration F: FB/RAMEB: drug/RAMEB complex; for Water solubility, drug concentration F: FB/α-CD: drug/α-CD complex; for Water solubility, drug concentration F: FB/γ-CD: drug/γ-CD complex
# [2] = physchem; conditions: water
# [3] = simultaneous administration of citric acid; Tokumura et al.; cited from earlier work
# [4] = acidic conditions; Kikuchi et al.; cited from earlier work
# [5] = 1 mmol terfenadine, 15 ml water, 6 mmol acetic or 4 mmol formic acid
# [6] = Effect of some acids on the β-CD solubility; format: physicochemical
# Procedure: In a test tube 1000 mg of β-CD in 5 ml of a solution having different concentrations of an acid selected from tartaric, citric, lactic acid, were let to equilibrate for two days at 28*/-2° C. under stirring. The solution was filtered and β-CD concentration was determined by HPLC.
# [7] = Table 1, drug tartrate in β-CD solution, room temperature
# [8] = drug concentration F: FB, Table 1, basic-type drug alone, room temperature
# [9] = drug concentration F: FB, Table 3, basic-type drug alone
# [10] = drug concentration F: FB/AT, Table 1, drug with tartaric acid, room temperature
smiles,measurement,setting,value
COc1ccc(CCN2CCC(Nc3nc4ccccc4n3Cc3ccc(F)cc3)CC2)cc1 [Astemizole],Solubility ratio to FB: FB,[1]; Table 1,1 x
same,Solubility ratio to FB: FT/βCD,"[1]; Table 1, drug tartrate in β-CD solution",1975 x
same,"Water solubility, drug concentration F: FT/βCD",[1]; [7],7900 µg/mL
same,Solubility ratio to FB: FB/AT,[1]; Table 1,817.5 x
same,Solubility ratio to FB: FB/AT/βCD,[1]; Table 1,22500 x
same,"Water solubility, drug concentration F: FB/AT/βCD","[1]; Table 1, room temperature",90000 µg/mL
same,Solubility ratio to FB: FB/βCD,"[1]; Table 1, drug/β-CD complex",16 x
same,"Water solubility, drug concentration F: FB/βCD","[1]; Table 1, room temperature",65 µg/mL
same,Solubility ratio to FB: FB/DIMEB,[1]; Table 3,303 x
same,Solubility ratio to FB: FB/HPβ-CD,[1]; Table 3,86 x
same,Solubility ratio to FB: FB/RAMEB,[1]; Table 3,275 x
same,Solubility ratio to FB: FB/α-CD,[1]; Table 3,6 x
same,Solubility ratio to FB: FB/γ-CD,[1]; Table 3,6.6 x
same,"Water solubility, drug concentration F: FB/DIMEB",[1]; Table 3,1245 µg/mL
same,"Water solubility, drug concentration F: FB/HPβ-CD",[1]; Table 3,353 µg/mL
same,"Water solubility, drug concentration F: FB/RAMEB",[1]; Table 3,1100 µg/mL
same,"Water solubility, drug concentration F: FB/α-CD",[1]; Table 3,24 µg/mL
same,"Water solubility, drug concentration F: FB/γ-CD",[1]; Table 3,27 µg/mL
same,solubility,[2]; [8],4 µg/mL
same,solubility,[2]; [9],4 µg/mL
same,solubility,[2]; [10],3270 µg/mL
C(=C\c1ccccc1)/CN1CCN(C(c2ccccc2)c2ccccc2)CC1 [Cinnarizine],Difference in bioavailability between cinnarizine + citric acid and its β-cyclodextrin complex + citric acid,[3],no significant difference
CCN(CC)CCOc1ccc(C(=C(Cl)c2ccccc2)c2ccccc2)cc1 [Clomifene],Solubility ratio to FB: FB,[1]; Table 2,1 x
same,Solubility ratio to FB: FC/βCD,"[1]; Table 2, drug citrate in β-CD solution",500 x
same,"Water solubility, drug concentration F: FC/βCD","[1]; Table 2, drug citrate in β-CD solution, room temperature",20000 µg/mL
same,Solubility ratio to FB: FB/AC,"[1]; Table 2, drug with citric acid",155 x
same,Solubility ratio to FB: FB/AC/βCD,"[1]; Table 2, drug/citric acid/β-CD multicomponent complex",1925 x
same,"Water solubility, drug concentration F: FB/AC/βCD","[1]; Table 2, drug/citric acid/β-CD multicomponent complex, room temperature",77000 µg/mL
same,Solubility ratio to FB: FB/CD,"[1]; Table 2, drug/β-CD complex",7 x
same,"Water solubility, drug concentration F: FB/CD","[1]; Table 2, drug/β-CD complex, room temperature",280 µg/mL
same,solubility,"[2]; drug concentration F: FB, Table 2, basic-type drug alone, room temperature",40 µg/mL
same,solubility,"[2]; drug concentration F: FB/AC, Table 2, drug with citric acid, room temperature",6200 µg/mL
O=c1[nH]c2ccccc2n1CCCN1CCC(n2c(=O)[nH]c3cc(Cl)ccc32)CC1 [Domperidone],Solubility ratio to FB: FB,[1]; Table 1,1 x
same,Solubility ratio to FB: FB/AT,[1]; Table 1,2000 x
same,Solubility ratio to FB: FB/AT/βCD,[1]; Table 1,5000 x
same,"Water solubility, drug concentration F: FB/AT/βCD","[1]; Table 1, room temperature",25000 µg/mL
same,Solubility ratio to FB: FB/βCD,"[1]; Table 1, drug/β-CD complex",4.4 x
same,"Water solubility, drug concentration F: FB/βCD","[1]; Table 1, room temperature",22 µg/mL
same,Solubility ratio to FB: FB/AT/DIMEB,[1]; Table 3,600 x
same,Solubility ratio to FB: FB/AT/HPβ-CD,[1]; Table 3,10000 x
same,Solubility ratio to FB: FB/AT/RAMEB,[1]; Table 3,6000 x
same,Solubility ratio to FB: FB/AT/α-CD,[1]; Table 3,5000 x
same,Solubility ratio to FB: FB/AT/γ-CD,[1]; Table 3,6000 x
same,Solubility ratio to FB: FB/DIMEB,[1]; Table 3,112 x
same,Solubility ratio to FB: FB/HPβ-CD,[1]; Table 3,32 x
same,Solubility ratio to FB: FB/RAMEB,[1]; Table 3,56 x
same,Solubility ratio to FB: FB/α-CD,[1]; Table 3,6.6 x
same,Solubility ratio to FB: FB/γ-CD,[1]; Table 3,8 x
same,"Water solubility, drug concentration F: FB/DIMEB",[1]; Table 3,560 µg/mL
same,"Water solubility, drug concentration F: FB/HPβ-CD",[1]; Table 3,160 µg/mL
same,"Water solubility, drug concentration F: FB/RAMEB",[1]; Table 3,280 µg/mL
same,"Water solubility, drug concentration F: FB/AT/DIMEB","[1]; Table 3, drug/tartaric acid/DIMEB multicomponent complex",30000 µg/mL
same,"Water solubility, drug concentration F: FB/AT/HPβ-CD","[1]; Table 3, drug/tartaric acid/HPβ-CD multicomponent complex",50000 µg/mL
same,"Water solubility, drug concentration F: FB/AT/RAMEB","[1]; Table 3, drug/tartaric acid/RAMEB multicomponent complex",30000 µg/mL
same,"Water solubility, drug concentration F: FB/AT/α-CD","[1]; Table 3, drug/tartaric acid/α-CD multicomponent complex",25000 µg/mL
same,"Water solubility, drug concentration F: FB/AT/γ-CD","[1]; Table 3, drug/tartaric acid/γ-CD multicomponent complex",30000 µg/mL
same,"Water solubility, drug concentration F: FB/α-CD",[1]; Table 3,33 µg/mL
same,"Water solubility, drug concentration F: FB/γ-CD",[1]; Table 3,40 µg/mL
same,solubility,[2]; [8],5 µg/mL
same,solubility,[2]; [9],5 µg/mL
same,solubility,[2]; [10],10000 µg/mL
"CCCCCCNC(=O)n1cc(F)c(=O)[nH]c1=O [HCFU, 1-hexylcarbamoyl-5-fluorouracil]",Chemical stability,[4],chemically stable under acidic conditions
CC(=O)N1CCN(c2ccc(OCC3COC(Cn4ccnc4)(c4ccc(Cl)cc4Cl)O3)cc2)CC1 (stereo not drawn) [Ketoconazole],"Water solubility, drug concentration F: FT/βCD",[1]; [7],21000 µg/mL
same,"Water solubility, drug concentration F: FB/AT/βCD","[1]; Table 1, room temperature",110000 µg/mL
same,"Water solubility, drug concentration F: FB/βCD","[1]; Table 1, room temperature",1240 µg/mL
same,solubility,[2]; [8],50 µg/mL
same,solubility,[2]; [10],21000 µg/mL
CC(C)(C)c1ccc(C(O)CCCN2CCC(C(O)(c3ccccc3)c3ccccc3)CC2)cc1 (stereo not drawn) [Terfenadine],Dissolution attempt with acid without cyclodextrin,[5],not successful
OC[C@H]1O[C@@H]2O[C@H]3[C@H](O)[C@@H](O)[C@@H](O[C@H]4[C@H](O)[C@@H](O)[C@@H](O[C@H]5[C@H](O)[C@@H](O)[C@@H](O[C@H]6[C@H](O)[C@@H](O)[C@@H](O[C@H]7[C@H](O)[C@@H](O)[C@@H](O[C@H]8[C@H](O)[C@@H](O)[C@@H](O[C@H]1[C@H](O)[C@H]2O)O[C@@H]8CO)O[C@@H]7CO)O[C@@H]6CO)O[C@@H]5CO)O[C@@H]4CO)O[C@@H]3CO [β-CD],β-CD concentration,"[6]; citric acid 0 mg/ml, 2880 min",18.3 mg/mL
same,β-CD concentration,"[6]; citric acid 9.6 mg/ml, 2880 min",34.1 mg/mL
same,β-CD concentration,"[6]; citric acid 19.2 mg/ml, 2880 min",47.9 mg/mL
same,β-CD concentration,[6]; citric acid 48.0 mg/ml,86.1 mg/mL
same,β-CD concentration,"[6]; citric acid 96.0 mg/ml, 2880 min",140.1 mg/mL
same,β-CD concentration,"[6]; citric acid 144.0 mg/ml, 2880 min",195.7 mg/mL
same,Effect of tartaric and citric acid on water solubility of β-CD,[6]; depending on acid concentration,remarkably enhance the water solubility
same,β-CD concentration,"[6]; lactic acid 0 mg/ml, 2880 min",18.3 mg/mL
same,β-CD concentration,"[6]; lactic acid 9.0 mg/ml, 2880 min",18.8 mg/mL
same,β-CD concentration,"[6]; lactic acid 22.5 mg/ml, 2880 min",24.2 mg/mL
same,β-CD concentration,"[6]; lactic acid 67.5 mg/ml, 2880 min",35.8 mg/mL
same,Effect of lactic acid on water solubility of β-CD,"[6]; lactic acid, compared with tartaric and citric acid",lower effect
same,Increase of the β-CD solubility in the binary system acid-β-CD,[6]; tartaric 11 and citric 17 mg/ml respectively,about 2 times
same,β-CD concentration,"[6]; tartaric acid 0 mg/ml, 2880 min",18.3 mg/mL
same,β-CD concentration,"[6]; tartaric acid 15.0 mg/ml, 2880 min",31.4 mg/mL
same,β-CD concentration,"[6]; tartaric acid 112.5 mg/ml, 2880 min",83.7 mg/mL

# Reference: US5855916A, “Highly soluble multicomponent inclusion complexes containing a base type drug, an acid and a cyclodextrin” (priority 1993, dated 1999)
